Where two headings read alike, the source gives them in different places.
Columns and labels:
[1] = tested on: human polymorphonuclear leukocytes (PMNL); test: ROS generation from PMNL, lucigenin-amplified chemiluminescence; assay type: cell-based; settings: for IC50: Homo sapiens, PMNL
Procedure: Human PMNL were isolated from fresh blood (anticoagulated with sodium citrate) by erythrocyte sedimentation with 1% dextran (Pharmacia, Uppsala, Sweden) centrifugation of the resulting supernatant, followed by hypoosmotic lysis to remove red blood cells. Washed cells were adjusted to 2 x 10⁶ cells/ml in PBS containing fetal calf serum (2%; v/v). Test compounds dissolved in DMSO were diluted with the assay buffer to a final DMSO concentration of 0.5% (v/v).
Then the test compounds (100 µl) were added with subsequent recording for another 16 min period. […] Results were expressed as percent of inhibition or stimulation of the controls (mean of two integrals) in a single experiment.

[2] = tested on: TPA-induced edema and hyperproliferation in mouse skin; test: Topical application, TPA-induced edema and hyperproliferation in mouse skin; assay type: in vivo, Hairless mice (hr/hr; male); settings: with 0.01 wt% TPA
Procedure: Hairless mice (hr/hr; male) were treated on their backs with 10 µl of a 0.01 wt% solution of 12-O-tetradecanoylphorbol-13-acetate (TPA) in a 80/20 mixture of acetone/water, further containing the test substances cyclosporin A, sphingosine or tiflucarbine. Per mouse, 4 application sites were used: one application site was treated with only TPA (control) and one with only vehicle (blanco), two with experimental formulations, according to a roulation scheme. 6 mice were treated per experiment. Skin fold thickness was determined before treatment (t=0) and 6 and 24 h after treatment, as a measure of edema. After 72 h the epidermis (15 mm punch biopsy) was separated with 2 M KBr and dissolved in 0.1 M NaOH for determination of the amount of protein, as a measure of hyperproliferation. In one experiment tiflucarbine was compared with cyclosporin A, in a second experiment with sphingosine.

NHEK = test: Keratinocyte proliferation, neutral red assay (number of viable attached cells); assay type: cell-based; settings: Homo sapiens, Ca²⁺ concentration low (0.06 mM), read-out: keratinocyte proliferation IC₅₀ values
Procedure: (§1) On day 0, 5,000 cells in 100 µl were plated per well in a 96-well cluster plate (Greiner), either in the medium as stated above, or in MCDB153 medium (Clonetics) under low calcium conditions. On day 1 100 µl medium containing increasing concentrations of test agents were added to each well. On day 4, 50 µl of 0.05% neutral red (Gurr) solution in 0.9% NaCl was added per well and the cells were reincubated for 3 h at 37°C. After washing with PBS, the cells were lyzed by addition of 100 µl of 50% ethanol in 0.05 M NaH₂PO₄ per well. After vigorous shaking, the optical extinction was measured at 550 nm. […] Meth., 9: 7). All determinations were performed in octuple. IC₅₀-values (the concentration inhibiting cell numbers by 50%) were determined (µM).

SVK₁₄ = test: as above; assay type: cell-based; settings: Homo sapiens
Procedure: as §1

PKC = settings: in-vitro tests; Hegemann et al. (1989); cited from earlier work
50 kDa protein = test: Phosphorylation of synaptosomal plasma membranes: CaM-dependent phosphorylation of the 50 kDa protein; assay type: biochemical; settings: in the presence of exogenous CaM (3 units/assay); read-out: IC₅₀-value, CaM-dependent phosphorylation of the 50 kDa protein
Procedure: Subcellular fractionation and phosphorylation assay were performed according to Kristjansson et al., (1982). […] After a preincubation at 30°C for 5 min, the phosphorylation reaction was started by adding the ATP. The reaction was stopped after 15 sec. All compounds to be tested were present at the start of the preincubation. […] Phosphorylation of B-50 and the 50 kDa protein, which was only phosphorylated after addition of CaM, was measured in the presence of exogenous CaM (3 units/assay) and quantified.

Procedure for HaCaT cells: HaCaT cells were grown as described.
Cytotoxicity was assessed by measurements of the content of intracellular lactate dehydrogenase (LDH) activity released into the culture medium during 48 h after onset of drug exposure. Possible drug induced detachment of the HaCaT cells from the plate was assessed by collection of the medium from the wells and centrifugation (80 x g, 10 min.) The resulting pellet was suspended in 10 µl medium and cells were counted in a haemocytometer.

SMILES: CCN1CCc2[nH]c3cc(F)c4scc(C)c4c3c2C1 [Tiflucarbine, 1-methyl-9-ethyl-4-fluoro-7,8,9,10-tetra:hydro-thieno-[3,2-e]-pyrido-[4,3-b]-indole lactate]
- toxic concentration (HaCaT cells): above 300 µM
- IC50 ([1]; 16 min, compound added at peak, 16 min after opsonized zymosan, IC₅₀-values, read-out: Peak CL): 14 µM
- IC50 ([1]; 30 min preincubation, unstimulated, IC₅₀-values, read-out: Spontaneous CL): 7.2 µM
- IC50 ([1]; stimulation with opsonized zymosan after preincubation, IC₅₀-values, read-out: Induced CL): 7.4 µM
- IC50 ([1]; unstimulated cells and cells stimulated with opsonized zymosan or PMA, read-out: IC₅₀ values, inhibition of ROS generation): 7 µM
- inhibition of peak chemiluminescence to 50%, fold higher concentrations ([1]; both stimuli (opsonized zymosan, PMA), relative to the IC₅₀ of 7 µM): 2-3 fold
- induction of the release of reactive oxygen species ([1]; human PMNL, unstimulated): does not induce the release
- edema (skin fold thickness) ([2]; 6 and 24 h after treatment): reduces edema at 0.5, 1 and 2.5%
- hyperproliferation (amount of epidermal protein) ([2]; after 72 h): reduces hyperproliferation only at 1 and 2.5%
- IC50 (NHEK): 10 µM
- IC50 (SVK₁₄; SVK₁₄, Ca²⁺ concentration normal (1.6 mM), read-out: keratinocyte proliferation IC₅₀ values): 12.5 µM
- IC50 (SVK₁₄; read-out: keratinocyte proliferation IC₅₀ values, SVK₁₄, Ca²⁺ concentration low (0.06 mM)): 7.5 µM
- PKC activity (PKC): significantly inhibit PKC activity
- IC50 (50 kDa protein): < 1 µM

Source: EP0499337A1, “Use of tetra:hydro-thieno-pyrido-indole derivatives for the treatment of skin disorders” (YAMANOUCHI EUROPE B.V., priority 1991, dated 1992)
